A value given as a limit tells only on which side of the number the result lay.

With `Nc1ccnc(CCCCN2C(=O)c3ccccc3C2=O)n1`, the melting point was 139 to 140 °C. With `O=C(O)c1ccc(CC(=O)c2ccccc2Cl)cc1` the figure was 168 to 172 °C.

Take `CCSc1nsc(NC(=O)NC)c1C#N`: the melting point is 246 °C.

Regarding `CC(=NN(C)c1ccc(C(F)(F)F)cc1)C(=O)NCc1ccc(Cl)nc1`, the melting point was 141 to 142 °C. For the compound `CC(C)[Si](OCCOc1cc(CO)ccc1Br)(C(C)C)C(C)C`, the melting point worked out at 62.2 °C. With `CCOCCn1c(N(Cc2ccccc2)C2CCN(C(=O)OCC)CC2)nc2cccnc21` the figure was 115 °C; with `NS(=O)(=O)CS(=O)(=O)c1ccc(SCCO)cc1`, 136 to 137 °C; with `CCCSC1=NSc2cc(C)cnc2N1Cc1ccc(-c2ccccc2C#N)cc1`, 190 to 192 °C. In turn, `CCCCCCCC(=O)OC(=C1C(=O)N(C(N)=O)c2cc(Cl)c(F)cc21)c1cccs1` returned a melting point of 149 to 150 °C. Compound `C[C@H](NC(=O)OC(C)(C)C)C(=O)OCC(C)(C)Nc1cccc2c1C(=O)c1ccccc1C2=O` gave a melting point of 120 °C. In the case of `CC(=O)Nc1ccccc1OCCCN1CCC(c2noc3cc(F)ccc23)CC1` it was 118 to 120 °C; in that of `COc1cc(OC)nc(OC(C(=O)O)C(C)(C)C#N)n1` (configuration not stated), 142 to 150 °C; in that of `COCC(COC)N(C)Cc1ccc(NC(=O)C2=Cc3cc(-c4ccc(C)cc4)ccc3OCC2)cc1`, 128 to 132 °C. Take `CCCCN(C(C)=O)C1CC(C)(C)N(OC(=O)C(C)(C)C)C(C)(C)C1`: the melting point was 81 to 94 °C. In the case of `CC(=O)OCCC(=O)C1CCC2C3CCC4CC(O)CCC4(C)C3C(=O)CC12C` (configuration not stated) it was 113 to 115 °C. `N#Cc1ccc(-c2cn(-c3ccc(C#N)cc3)c(CC3(O)C=CC=CN3)n2)cc1` (configuration not stated) displayed a melting point of 167 to 175 °C. In the case of `CCOC(=O)c1c(-c2ccncc2)[nH]c(-c2ccncc2)c1-c1ccc([N+](=O)[O-])cc1`, the melting point lay within 274 to 276 °C.

Take `Cc1nn(C(=O)NC(C)(C)CCc2ccccc2)c(=O)n1N`: the melting point was found to be 87 °C. With `CC(=O)OC1(C(C)=O)CCC2C3C(OS(C)(=O)=O)C(Cl)C4=CC(=O)OCC4(C)C3CCC21C` (configuration not stated) the figure was 222 to 226 °C; with `O=C1N(Cc2ccc(Cl)cc2)c2ccccc2C1(O)CC(F)(F)c1cccs1` (configuration not stated), 121 to 123 °C; with `CCNC=C(C(=O)C=Cc1ccc2c(c1)OCO2)C(=O)OC`, 124 to 125 °C.

Regarding `CCCCCC(CCCCCO)NCc1cc2cc3c(cc2c2cc(OC)ccc12)OCO3` (configuration not stated), the melting point lay within 122 to 124 °C. For `O=S(=O)(c1ccc(Cl)cc1)C(c1cc(F)ccc1F)c1cc(NCCOCCO)ncc1Cl` (configuration not stated), the melting point lay within 113 to 115 °C.

`CCCCCCCCCCOc1ccc(C(=O)O)o1` came in with a melting point of 124 to 126 °C. Compound `N#CC(O)C(=O)c1ccccc1` (configuration not stated) showed a melting point of 100 to 105 °C. `O=C(O)c1cc(Cc2c[nH]cn2)ccc1O`: the melting point was 254 to 258 °C. Compound `Cc1cc(Cc2cc(C)cc(C(C)(C)C)c2O)c(O)c(-n2nc3ccccc3n2)c1` showed a melting point of 167 °C.

In turn, `Cc1nc2c(N)nc3ccccc3c2n1CCCCNC(=O)C(C)C` gave a melting point of 160 to 161 °C. With `CC1C(=O)CCC2(C)C1CCC1C3CCC(=Cc4ccccc4Cl)C3(C)CCC12` (configuration not stated) the figure was 205 to 208 °C. In the case of `Cc1cccc([N+](=O)[O-])c1Br` it was 36 to 41 °C. In the case of `CCCCCNC(=O)[C@@H]1CCCN1C(=O)[C@H](C)NC(=O)OCc1ccccc1` it was 102 to 104 °C.

For `O=C(Nc1cnc2cnc(-c3ccc(O)cc3)nc2c1)c1ccncc1`, the melting point was 230 to 232 °C. Compound `CCOc1noc(C(=O)OCc2ccccc2)c1CC(NC(=O)OC(C)(C)C)C(=O)OCc1ccccc1` (racemic) yielded a melting point of 142 to 144 °C. On to `COc1ncccc1OCC1(c2onc(-c3ccc(O)cc3)c2-c2ccccc2)CC1`, for which the melting point lay in the range of 189 to 190 °C. Take `O=S1(=O)c2cccc3cccc(c23)N1CCN1CCC(CC2CCc3ccccc32)CC1` (configuration not stated): the melting point amounted to 127 °C.

`CC(=O)SCSc1cn(C(c2ccccc2)(c2ccccc2)c2ccccc2)nn1`: the melting point fell in the range of 115 to 116 °C. With `ClCCCc1ccc(OCc2ccccc2)cc1` the figure was 34 to 35 °C. With `CCCN1OCC(=Cc2cc(C(C)(C)C)c(O)c(C(C)(C)C)c2)C1=O` the figure was 194 to 196 °C; with `CS(=O)(=O)c1ccc2c(c1)S(=O)(=O)NCN2CCF`, 193 to 195 °C. In turn, `COc1cnnc(O)c1` had a melting point of 253 to 255 °C. In the case of `NC(=O)c1snc(-c2cccc(C(F)(F)F)c2)c1N` it was 124 °C; in that of `NS(=O)(=O)c1cc(C(=O)OCC(=O)NCCO[N+](=O)[O-])c(NCc2ccco2)cc1Cl`, 135 °C; in that of `CC(C)(C)c1cc2c(c(C(C)(C)C)c1)OC(=O)C2c1ccccc1` (configuration not stated), 116 to 119 °C. In the case of `CCCOc1ccc(-c2csc(-c3ccccc3)c2CC(=O)N=C(N)N)cc1` it was 131 to 132 °C. In the case of `CS(=O)(=O)On1c(C(F)(F)F)nc2ncc(Cl)cc21` it was 137 °C; in that of `CN(C)C1(c2ccccc2)CCC(CNC(=O)N2CC=C(c3c[nH]c4ccc(Cl)cc34)CC2)CC1` (configuration not stated), 183 to 185 °C. The compound `CC(=O)C[C@@H]1c2cc(C#N)ccc2OC(C)(C)[C@H]1O` (relative stereo) had a melting point of 114 to 115 °C.

With `CSc1nc2ccccc2c(-c2ccccc2)c1C(=O)N(C)Cc1cc(C(F)(F)F)cc(C(F)(F)F)c1`, the melting point was in the range of 144 to 145 °C. With `c1ccc2c(c1)N[C@H]1CCNCC[C@@H]21` (relative stereo) the figure was 102 to 114 °C; with `CSc1noc(-c2ccc(OCCOc3ccc(Br)cc3)cc2)c1C#N`, 156 to 157 °C. With `N#Cc1c2ccccc2cc2c1sc1cccc(-c3cc(Br)c(OCC(=O)O)c(Br)c3)c12` the figure was 259 to 261 °C. `COC(=O)c1cc(-c2ccc(OCc3cccnc3)cc2O[C@H](CCC(=O)O)c2ccccc2C)n[nH]1`: the melting point fell in the range of 155 to 156 °C.

For `CN(C)CCNC(=O)c1cccc(-c2cccc3cc(Cc4cc(F)cc(Cl)c4)sc23)c1`, the melting point was in the range of 126 to 127 °C. `COc1ccc2ncc(C#N)c(Nc3ccc4cn[nH]c4c3)c2c1` showed a melting point above 250 °C. With `OCc1cc(Cl)c(Cl)cc1CO` the figure was 128 to 136 °C; with `O=C1NC(=O)c2c1c(-c1cccc(Cl)c1Cl)cc1[nH]c3ccc(O)cc3c21`, 233 to 235 °C; with `Cc1cc(-c2ccc(C(F)(F)F)cc2)nc(-c2ccnc(-c3ccc(S(N)(=O)=O)s3)c2)n1`, 264 °C. In turn, `OCC1C=CC(n2c(Br)nc3cc(Cl)c(Cl)cc32)C1` (configuration not stated) registered a melting point of 126 to 128 °C.

With `CC(=O)c1c[nH]c2cc(-c3ccncc3)ccc2c1=O`, the melting point was above 300 °C. With `CC(=O)Oc1ccc2c(c1)OC(C)(c1ccccc1)O2` (configuration not stated) the figure was 87 to 87.5 °C. In the case of `COC(=O)COc1ccc(-c2c(Br)ccc3sc4ccccc4c23)cc1` it was 122 °C; in that of `CCCCCCCCCCCCc1nnn(C(C(N)=O)c2c(C(C)C)cccc2C(C)C)n1` (configuration not stated), 91 to 93 °C.

(Values after a melting point compilation (Tetko et al.; mined from patent text by program, amines drawn as free bases though some values may be those of a salt).)
